“Also recorded” adds a separate entry of the source.
Key:
adult, female mosquitoes = experiment: Topical application on adult female mosquitoes (24-h mortality, 1-h knockdown); assay type: in vivo, mosquito
corn seeds = experiment: Seed treatment testing: survival/germination of treated corn seeds (FIG. 2B); assay type: in vivo; details: seeds coated with compound; 1 week after introduction of larvae
Description: Corn seeds used were a non-transgenic type strain of corn to prevent confounding results. Germination typically occurred between 2-4 days after moistening.
Seed coating was accomplished by placing 20 g of corn seeds or soybeans into a container with approximately 1 mL of a 1:5 Elmer's glue:water solution with a small amount of Triton-X100™ (present 100 μL/5 mL). For solid compounds, 0.25 g of compound was subsequently introduced into the container. This mixture of seeds, Elmer's Glue/water/Triton-X 100™ solution, and active compound was mixed thoroughly until seeds were coated with the active ingredient.
For each treatment, 0.25 g of liquid compound was dissolved in 5 mL of hexane. 0.25 g of Hi-Sil 233 silica gel was introduced into this mixture of hexane and active ingredient. The solvent was blown-off using a rotary evaporator, allowing for the compound to adsorb to the silica gel. This 0.5 g of silica gel:active ingredient was then used as the solid material used for coating the seeds. The seeds were then coated with the same method used for solid compound.
Three corn seeds coated in pogostone derivative treatments were germinated in small, 2-oz. […] Germination of seedlings was also recorded at the end of the assay by counting the total number of seeds that produced roots out of the 3 seeds in each container/replicate and recorded as total percentage germination. […]

German roaches = experiment: Spray-cup testing, German roaches (FIG. 3b); assay type: in vivo, German roach; details: Formula 13 2.5% w/v in water vs thymol 2.5% or 10% w/v
Description: 10 adults of various arthropod species used for this characterization were placed into 8 oz. ice cream cups with tulle placed over the top to prevent the escape of arthropods from the container. Test formulations were added to spray bottles ([…]™) and applied at the same distance and spray number to eliminate variation between manufacturer spray bottles. For all experiments, spray bottles were set to mist in order to prevent excess formulation from accumulating in the cups. […] Mortality was recorded at 1 min, 5 min, 10 min, 15 min, 30 min, 4 hours, and 8 hours for each replicate. A minimum of 3 replicates of 10 arthropods/cup/replicate were performed for each formulation. Data was modeled using a logarithmic regression to show the speed-to-kill of each formulation and highlight differences among treatment groups. Different spray amounts were used for each arthropod, depending on susceptibility, e.g.:
German roaches=10 sprays, 3 in […]

soybean aphids = experiment: Leaf spray/dip test, soybean aphids (FIG. 4a); assay type: in vivo, soybean aphid; details: soybean aphids on dipped soybean leaves, 48 hours
Description: (§1) Soybean leaves were removed from a previously uninfested plant and dipped in solution containing water, various concentrations of compounds to be screened, and 0.5% industrial emulsifier. Leaves were allowed to air dry for 30 minutes before the beginning of the assay to assure excess formulation was not present on the treated leaves. Ten two-spotted spider mites or ten soybean aphid adults were gently placed on the top surface of the treated leaves. A minimum of three replicates were performed for each formulation tested in this experiment. Mortality of aphids or spider mites was recorded at 48 hours after their introduction to treated leaves. All treatments were compared to a water+emulsifier control and a thymol+emulsifier control. Data was presented as the average mortality across all replicates along with the standard error of the mean.

two-spotted spider mites = experiment: Leaf spray/dip test, spider mites (FIG. 4b); assay type: in vivo, two-spotted spider mite; details: spider mites on dipped soybean leaves, 48 hours
Description: as §1

adult house flies = experiment: Topical application of pogostone derivatives with PBO or plant essential oil on house flies; assay type: in vivo, house fly; details: house flies
Description: Combinations of select pogostone derivatives with select concentrations of PBO or plant essential oils was performed. […] Synergists were applied as a subsequent application directly after the application of pogostone derivatives. Concentrations of synergists (plant oils or PBO) were chosen that produced no mortality at 24 hours when applied alone.
To assess the ability of PBO to increase the toxicity of a wide variety of pogostone derivatives, PBO and the pogostone derivatives were applied in combination to the pronotum of house flies.
Finally, the potential of plant essential oils to synergize the effect of Formula 30 was assessed.

adult female mosquitoes = experiment: whole plant or invertebrate; details: topical
Description: The first group of DHAA-based derivatives that were tested included Formula A2, Formula B3, Formula C3, and Formula D3. A solution of 0.5% or 1.5% of each of these compounds was applied to the mosquitoes, as described above. […] Acetone was used as a control.

[1] = system: two-spotted spider mites, soybean aphids, maize weevils, German cockroaches, and European corn borers; experiment: Screen of Formula 13 against other arthropod pest species; assay type: in vivo; details: words
[2] = system: Pyrethroid-resistant strain of Aedes aegypti (Puerto Rican strain); experiment: Toxicity to insecticide-resistant mosquitoes (FIG. 1); details: dose response curves FIG. 1

With `CC(C)CCC(=O)c1c(O)c2ccccc2oc1=O` [Formula 13] the ED50 (adult, female mosquitoes; topical, 1 h, read-out: KD50 (ug/g mosquito)) was 182 mg/kg, the LD50 (adult, female mosquitoes; topical, 24 h, read-out: LD50 (ug/g mosquito)) was 119 mg/kg and the “insecticidal properties compared with natural pogostone, natural pyrethrins or terpenoids” value (adult, female mosquitoes; words, refers to Table 1) was “possessed better insecticidal properties than natural pogostone”. The “phytotoxicity to treated corn seeds” value (corn seeds) was “did not; also recorded: do not cause phytotoxicity”, the “efficacy (mortality) compared with thymol” value (German roaches) was “outperformed thymol at all time points; also recorded: surpassed the efficacy of thymol at both an equal or higher concentration” and the “mortality compared with thymol or control” value (soybean aphids) was “performed better than thymol; also recorded: significantly more effective at killing soybean aphids compared to thymol or a control”. For the same compound, the “mortality compared with thymol or control” value (two-spotted spider mites) was “performed better than thymol”, the “SR (synergistic ratio)” value (adult house flies; LD50 alone versus in combination with PBO) was 17.8 and the “LD50” value (adult house flies; topical, derivative alone or in combination with PBO) was 5950 µg/g. For the same compound, the “1-hour Knockdown EC50 (μg/g mosquito)” value (adult female mosquitoes; mosquito, 1 hour) was 182 μg/g mosquito, the LD50 (adult female mosquitoes; 24 h, read-out: 24-hour Mortality LD50 (μg/g mosquito)) was 119 mg/kg and the “toxicity compared with thymol” value [1] was “more toxic than a commonly used natural insecticide, thymol”. The “insecticidal capacity compared with natural pyrethrins” value [2] was “outperformed natural pyrethrins”.
